The record followed here is article PMC11352961, “Peptide dendrimers transfecting CRISPR/Cas9 plasmid DNA: optimization and mechanism” (RSC Chemical Biology, 2024).

Molecules are shown by their SMILES. Bridge positions count the residues as written; N and C are the ends. Square brackets hold non-standard residues; d marks the D form. Side chains are listed from the residue outwards. Peptide text beside a SMILES is read from it. I, II: the chains in the order shown. * marks the point of attachment. Stearoyl = CCCCCCCCCCCCCCCCCC(=O)*

The subject of one series is HEK293 cells. Briefly: Cell viability by PrestoBlue assay after transfection, HEK cells. As to conditions: 4 h. Format: cell-based.
For another series, the system named is HeLa cells. Briefly: Cell viability by PrestoBlue assay after transfection, HeLa cells. Format: cell-based. The note with it: 4 h.

As for `CCCCCCCCCCCCCCCCCC(=O)NCCCC[C@@H](NC(=O)[C@@H](CCCCNC(=O)[C@@H](CC(C)C)NC(=O)[C@@H](CCCNC(=N)N)NC(=O)[C@@H](CCCCNC(=O)[C@@H](CC(C)C)NC(=O)[C@@H](CCCNC(=N)N)NC(=O)[C@@H](CCCCNC(=O)[C@@H](CC(C)C)NC(=O)[C@H](N)CCCNC(=N)N)NC(=O)[C@@H](CC(C)C)NC(=O)[C@H](N)CCCNC(=N)N)NC(=O)[C@@H](CC(C)C)NC(=O)[C@@H](CCCNC(=N)N)NC(=O)[C@@H](CCCCNC(=O)[C@@H](CC(C)C)NC(=O)[C@H](N)CCCNC(=N)N)NC(=O)[C@@H](CC(C)C)NC(=O)[C@H](N)CCCNC(=N)N)NC(=O)[C@@H](CC(C)C)NC(=O)[C@@H](CCCNC(=N)N)NC(=O)[C@@H](CCCCNC(=O)[C@@H](CC(C)C)NC(=O)[C@@H](CCCNC(=N)N)NC(=O)[C@@H](CCCCNC(=O)[C@@H](CC(C)C)NC(=O)[C@H](N)CCCNC(=N)N)NC(=O)[C@@H](CC(C)C)NC(=O)[C@H](N)CCCNC(=N)N)NC(=O)[C@@H](CC(C)C)NC(=O)[C@@H](CCCNC(=N)N)NC(=O)[C@@H](CCCCNC(=O)[C@@H](CC(C)C)NC(=O)[C@H](N)CCCNC(=N)N)NC(=O)[C@@H](CC(C)C)NC(=O)[C@H](N)CCCNC(=N)N)C(=O)N[C@H](CS)C(N)=O` [Z22] (I: H-[dR][dL][dK]([dL-dR])[dR][dL][dK][dR][dL][dK][dK](Stearoyl)[dC]-NH2 / II: H-[dR][dL][dK]([dL-dR])[dR][dL][dK][dR][dL] / III: H-[dR][dL][dK]([dL-dR])[dR][dL] / IV: H-[dR][dL][dK]([dL-dR])[dR][dL]; amide I:6-IV:C, I:9-II:C, II:6-III:C), the “% viability HEK cells” value in the series on HEK293 cells is reported as 64 ± 4%. For the same compound, the “% viability HeLa cells” value in the series on HeLa cells is recorded as 92 ± 7%.
For the compound `CCCCCCCCCCCCCCCCCC(=O)NCCCC[C@H](NC(=O)[C@H](CCCCNC(=O)[C@H](CC(C)C)NC(=O)[C@H](CCCNC(=N)N)NC(=O)[C@H](CCCCNC(=O)[C@H](CC(C)C)NC(=O)[C@H](CCCNC(=N)N)NC(=O)[C@H](CCCCNC(=O)[C@H](CC(C)C)NC(=O)[C@@H](N)CCCNC(=N)N)NC(=O)[C@H](CC(C)C)NC(=O)[C@@H](N)CCCNC(=N)N)NC(=O)[C@H](CC(C)C)NC(=O)[C@H](CCCNC(=N)N)NC(=O)[C@H](CCCCNC(=O)[C@H](CC(C)C)NC(=O)[C@@H](N)CCCNC(=N)N)NC(=O)[C@H](CC(C)C)NC(=O)[C@@H](N)CCCNC(=N)N)NC(=O)[C@H](CC(C)C)NC(=O)[C@H](CCCNC(=N)N)NC(=O)[C@H](CCCCNC(=O)[C@H](CC(C)C)NC(=O)[C@H](CCCNC(=N)N)NC(=O)[C@H](CCCCNC(=O)[C@H](CC(C)C)NC(=O)[C@@H](N)CCCNC(=N)N)NC(=O)[C@H](CC(C)C)NC(=O)[C@@H](N)CCCNC(=N)N)NC(=O)[C@H](CC(C)C)NC(=O)[C@H](CCCNC(=N)N)NC(=O)[C@H](CCCCNC(=O)[C@H](CC(C)C)NC(=O)[C@@H](N)CCCNC(=N)N)NC(=O)[C@H](CC(C)C)NC(=O)[C@@H](N)CCCNC(=N)N)C(=O)N[C@@H](CS)C(N)=O` [Z24] (I: H-RLK([Leu-Arg])RLKRLKK(Stearoyl)C-NH2 / II: H-RLK([Leu-Arg])RLKRL / III: H-RLK([Leu-Arg])RL / IV: H-RLK([Leu-Arg])RL; amide I:6-IV:C, I:9-II:C, II:6-III:C), the “% viability HEK cells” value with HEK293 cells worked out at 86 ± 1%. The “% viability HeLa cells” value with HeLa cells stood at 91 ± 6%.
As for `CCCCCCCCCCCCCCCCCC(=O)NCCCC[C@H](NC(=O)[C@H](CCCCNC(=O)[C@H](CC(C)C)NC(=O)[C@H](CCCNC(=N)N)NC(=O)[C@H](CCCCNC(=O)[C@H](CC(C)C)NC(=O)[C@H](CCCNC(=N)N)NC(=O)[C@H](CCCCNC(=O)[C@H](CC(C)C)NC(=O)[C@@H](N)CCCNC(=N)N)NC(=O)[C@H](CC(C)C)NC(=O)[C@@H](N)CCCNC(=N)N)NC(=O)[C@H](CC(C)C)NC(=O)[C@H](CCCNC(=N)N)NC(=O)[C@H](CCCCNC(=O)[C@H](CC(C)C)NC(=O)[C@@H](N)CCCNC(=N)N)NC(=O)[C@H](CC(C)C)NC(=O)[C@@H](N)CCCNC(=N)N)NC(=O)[C@H](CC(C)C)NC(=O)[C@H](CCCNC(=N)N)NC(=O)[C@H](CCCCNC(=O)[C@H](CC(C)C)NC(=O)[C@H](CCCNC(=N)N)NC(=O)[C@H](CCCCNC(=O)[C@H](CC(C)C)NC(=O)[C@@H](N)CCCNC(=N)N)NC(=O)[C@H](CC(C)C)NC(=O)[C@@H](N)CCCNC(=N)N)NC(=O)[C@H](CC(C)C)NC(=O)[C@H](CCCNC(=N)N)NC(=O)[C@H](CCCCNC(=O)[C@H](CC(C)C)NC(=O)[C@@H](N)CCCNC(=N)N)NC(=O)[C@H](CC(C)C)NC(=O)[C@@H](N)CCCNC(=N)N)C(=O)N[C@@H](C)C(N)=O` [Z25] (I: H-RLK([Leu-Arg])RLKRLKK(Stearoyl)A-NH2 / II: H-RLK([Leu-Arg])RLKRL / III: H-RLK([Leu-Arg])RL / IV: H-RLK([Leu-Arg])RL; amide I:6-IV:C, I:9-II:C, II:6-III:C), the “% viability HEK cells” value in the series on HEK293 cells was found to be 85 ± 2%. Further, the “% viability HeLa cells” value in the series with HeLa cells is listed as 104 ± 8%.
With `CCCCCCCCCCCCCCCCCC(=O)NCCCC[C@@H](NC(=O)[C@@H](CCCCNC(=O)CCCCCCCCCCCCCCCCC)NC(=O)[C@@H](CCCCNC(=O)[C@@H](CC(C)C)NC(=O)[C@@H](CCCCN)NC(=O)[C@@H](CCCCNC(=O)[C@@H](CC(C)C)NC(=O)[C@@H](CCCCN)NC(=O)[C@@H](CCCCNC(=O)[C@@H](CC(C)C)NC(=O)[C@H](N)CCCCN)NC(=O)[C@@H](CC(C)C)NC(=O)[C@H](N)CCCCN)NC(=O)[C@@H](CC(C)C)NC(=O)[C@@H](CCCCN)NC(=O)[C@@H](CCCCNC(=O)[C@@H](CC(C)C)NC(=O)[C@H](N)CCCCN)NC(=O)[C@@H](CC(C)C)NC(=O)[C@H](N)CCCCN)NC(=O)[C@@H](CC(C)C)NC(=O)[C@@H](CCCCN)NC(=O)[C@@H](CCCCNC(=O)[C@@H](CC(C)C)NC(=O)[C@@H](CCCCN)NC(=O)[C@@H](CCCCNC(=O)[C@@H](CC(C)C)NC(=O)[C@H](N)CCCCN)NC(=O)[C@@H](CC(C)C)NC(=O)[C@H](N)CCCCN)NC(=O)[C@@H](CC(C)C)NC(=O)[C@@H](CCCCN)NC(=O)[C@@H](CCCCNC(=O)[C@@H](CC(C)C)NC(=O)[C@H](N)CCCCN)NC(=O)[C@@H](CC(C)C)NC(=O)[C@H](N)CCCCN)C(N)=O` [Z27] (I: H-[dK][dL][dK]([dL-dK])[dK][dL][dK][dK][dL][dK][dK](Stearoyl)[dK](Stearoyl)-NH2 / II: H-[dK][dL][dK]([dL-dK])[dK][dL][dK][dK][dL] / III: H-[dK][dL][dK]([dL-dK])[dK][dL] / IV: H-[dK][dL][dK]([dL-dK])[dK][dL]; amide I:6-IV:C, I:9-II:C, II:6-III:C), the “% viability HEK cells” value in the series on HEK293 cells was determined as 74.8 ± 0.7%. In the series on HeLa cells, the “% viability HeLa cells” value is recorded as 94 ± 5%.
